Experiments:
[1] = biological target: human ADAMTS-5 (Homo sapiens (Human), UniProt Q9UNA0); conditions: read-out: hADAMTS-5 potency IC50
Protocol: Finally, the fluorescence is read on the Envision (Perkin Elmer) after an incubation of 90 min at 37° C.

[2] = biological target: human TACE (Homo sapiens (Human), UniProt P78536); conditions: read-out: TACE potency IC50
[3] = biological target: human MMP13 (Homo sapiens (Human), UniProt P45452); conditions: read-out: hMMP-13 potency IC50
Protocol: Human MMP13 is preactivated by incubated the enzyme in the same buffer complemented with 1 mM freshly prepared p-Aminophenylmercuric acetate (AMPA) for 1 hour at 37° C.

[4] = biological target: human MMP14 (Homo sapiens (Human), UniProt P50281); conditions: read-out: hMMP-14 potency IC50
[5] = biological target: rnADAMTS-5 (1-564-6H) (Rattus norvegicus, UniProt Q6TY19); conditions: read-out: Rat ADAMTS-5 potency IC50

Chain of human TACE (P78536 whole entry, looked up, change not shown): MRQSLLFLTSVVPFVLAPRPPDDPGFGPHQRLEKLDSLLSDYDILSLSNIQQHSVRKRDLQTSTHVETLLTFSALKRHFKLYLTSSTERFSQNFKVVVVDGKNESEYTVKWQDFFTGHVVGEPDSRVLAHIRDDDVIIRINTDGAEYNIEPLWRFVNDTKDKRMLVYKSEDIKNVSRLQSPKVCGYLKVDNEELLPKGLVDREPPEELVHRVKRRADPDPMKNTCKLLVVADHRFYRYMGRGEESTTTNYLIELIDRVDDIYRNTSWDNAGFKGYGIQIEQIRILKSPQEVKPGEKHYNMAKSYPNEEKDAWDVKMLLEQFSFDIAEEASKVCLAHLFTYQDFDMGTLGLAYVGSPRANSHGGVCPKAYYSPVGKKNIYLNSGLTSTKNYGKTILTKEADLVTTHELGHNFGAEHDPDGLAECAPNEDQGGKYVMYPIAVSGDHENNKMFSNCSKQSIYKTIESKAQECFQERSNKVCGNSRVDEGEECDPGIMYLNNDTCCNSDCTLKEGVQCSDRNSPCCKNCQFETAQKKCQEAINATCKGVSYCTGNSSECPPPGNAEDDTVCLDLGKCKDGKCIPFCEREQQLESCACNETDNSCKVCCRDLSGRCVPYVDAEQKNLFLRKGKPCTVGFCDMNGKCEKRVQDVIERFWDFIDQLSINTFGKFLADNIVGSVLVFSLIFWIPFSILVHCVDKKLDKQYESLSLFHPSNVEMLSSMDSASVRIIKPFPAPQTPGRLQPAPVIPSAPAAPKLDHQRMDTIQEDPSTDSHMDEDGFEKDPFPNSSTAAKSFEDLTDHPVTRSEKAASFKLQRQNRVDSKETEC
Chain of human ADAMTS-5 (Q9UNA0 262-930): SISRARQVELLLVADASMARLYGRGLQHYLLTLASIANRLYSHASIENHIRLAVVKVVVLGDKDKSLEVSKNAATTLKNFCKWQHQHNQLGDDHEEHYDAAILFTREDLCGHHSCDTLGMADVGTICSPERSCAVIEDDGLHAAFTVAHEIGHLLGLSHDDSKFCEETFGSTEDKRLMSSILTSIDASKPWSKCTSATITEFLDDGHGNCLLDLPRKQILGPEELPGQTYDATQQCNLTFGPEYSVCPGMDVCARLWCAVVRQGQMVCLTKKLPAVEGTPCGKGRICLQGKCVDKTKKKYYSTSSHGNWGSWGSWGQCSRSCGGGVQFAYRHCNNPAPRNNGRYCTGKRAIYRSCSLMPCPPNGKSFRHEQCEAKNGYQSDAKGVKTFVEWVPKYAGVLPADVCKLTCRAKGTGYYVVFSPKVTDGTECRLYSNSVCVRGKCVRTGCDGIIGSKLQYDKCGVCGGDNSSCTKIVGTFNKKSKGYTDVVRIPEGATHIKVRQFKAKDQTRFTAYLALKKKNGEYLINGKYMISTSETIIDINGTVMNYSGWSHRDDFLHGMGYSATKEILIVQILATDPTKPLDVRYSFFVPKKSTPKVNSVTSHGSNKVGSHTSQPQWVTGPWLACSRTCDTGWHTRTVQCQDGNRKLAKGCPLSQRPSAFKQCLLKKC

SMILES	IC50 [1]	IC50 [2]	IC50 [3]	IC50 [4]	IC50 [5]
CC(=O)NCC1(CCC(=O)N2CCN(c3cc(Cl)cc(Cl)c3)CC2)NC(=O)NC1=O (stereo not drawn) [Cpd 223, N-[[4-[3-[4-(3,5-dichlorophenyl)piperazin-1-yl]-3-oxo-propyl]-2,5-dioxo-imidazolidin-4-yl]methyl]acetamide]	70 nM	> 4000 nM	> 20000 nM	> 20000 nM	
Cc1ccc(F)cc1N1CCN(C(=O)CCC2(C)NC(=O)NC2=O)CC1 (stereo not drawn) [compound 51, 5-[3-[4-(5-fluoro-2-methyl-phenyl)piperazin-1-yl]-3-oxo-propyl]-5-methyl-imidazolidine-2,4-dione]		> 3660 nM		> 20000 nM	508 nM
COCC1(CC(C)C(=O)N2CCN(c3ccc(F)c(F)c3)[C@@H](C)C2)NC(=O)NC1=O (stereo partly drawn) [compound 226, 5-[3-[(S)-4-(3,4-difluorophenyl)-3-methyl-piperazin-1-yl]-2-methyl-3-oxo-propyl]-5-(methoxymethyl)imidazolidine-2,4-dione]	22 nM	> 4000 nM	3270 nM	978 nM	
COCC1(CC(C)C(=O)N2CCN(c3cc(F)ccc3C)[C@@H](C)C2)NC(=O)NC1=O (stereo partly drawn) [compound 228, 5-[3-[(3S)-4-(5-fluoro-2-methyl-phenyl)-3-methyl-piperazin-1-yl]-2-methyl-3-oxo-propyl]-5-(methoxymethyl)imidazolidine-2,4-dione]	109 nM	> 4000 nM	> 4000 nM	> 20000 nM	
COCC1(CC(C)C(=O)N2CCN(c3cccc(F)c3)[C@@H](C)C2)NC(=O)NC1=O (stereo partly drawn) [compound 229, 5-[3-[(3S)-4-(3-fluorophenyl)-3-methyl-piperazin-1-yl]-2-methyl-3-oxo-propyl]-5-(methoxymethyl)imidazolidine-2,4-dione]	31 nM	> 4000 nM	3850 nM	682 nM	
COCC1(CC(C)C(=O)N2CCN(c3cc(F)ccc3C)CC2)NC(=O)NC1=O (stereo not drawn) [compound 230, 5-[3-[4-(5-fluoro-2-methyl-phenyl)piperazin-1-yl]-2-methyl-3-oxo-propyl]-5-(methoxymethyl)imidazolidine-2,4-dione]	24 nM	207 nM	> 20000 nM	> 20000 nM	
COCC1(CC(C)C(=O)N2CCN(c3cccc(Cl)c3C)[C@@H](C)C2)NC(=O)NC1=O (stereo partly drawn) [compound 232, 5-[3-[(3S)-4-(3-chloro-2-methyl-phenyl)-3-methyl-piperazin-1-yl]-2-methyl-3-oxo-propyl]-5-(methoxymethyl)imidazolidine-2,4-dione]	47 nM	> 4000 nM	> 20000 nM	> 20000 nM	
CC(CC1(C2CN(C(=O)OC(C)(C)C)C2)NC(=O)NC1=O)C(=O)N1CCN(c2ccc(F)c(F)c2)CC1 (stereo not drawn) [compound 234, tert-butyl 3-[4-[3-[4-(3,4-difluorophenyl)piperazin-1-yl]-2-methyl-3-oxo-propyl]-2,5-dioxo-imidazolidin-4-yl]azetidine-1-carboxy late]	28 nM	> 4000 nM	5.6 nM	7 nM	
CC(CC1(CCNC(=O)OC(C)(C)C)NC(=O)NC1=O)C(=O)N1CCN(c2ccc(F)c(F)c2)CC1 (stereo not drawn) [compound 235, tert-butyl N-[2-[4-[3-[4-(3,4-difluorophenyl)piperazin-1-yl]-2-methyl-3-oxo-propyl]-2,5-dioxo-imidazolidin-4-yl]ethyl]carbamate]	16 nM	1320 nM	21.2 nM	26 nM	
CC(CC1(C2CNC2)NC(=O)NC1=O)C(=O)N1CCN(c2ccc(F)c(F)c2)[C@@H](C)C1 (stereo partly drawn) [compound 247, 5-(azetidin-3-yl)-5-[3-[(3S)-4-(3,4-difluorophenyl)-3-methyl-piperazin-1-yl]-2-methyl-3-oxo-propyl]imidazolidine-2,4-dione]	95 nM	> 19600 nM	> 20000 nM	> 4000 nM	
COC(CC1(C)NC(=O)NC1=O)C(=O)N1CCN(c2cc(F)cc(Cl)c2)[C@@H](C)C1 (stereo partly drawn) [compound 295, 5-[3-[(3S)-4-(3-chloro-5-fluoro-phenyl)-3-methyl-piperazin-1-yl]-2-methoxy-3-oxo-propyl]-5-methyl-imidazolidine-2,4-dione]	115 nM	> 20000 nM		3460 nM	71 nM
CC(CC1(C2CC2)NC(=O)NC1=O)C(=O)N1CCN(c2cncc(Cl)c2)[C@@H](C)C1 (stereo partly drawn) [compound 314, 5-[3-[(3S)-4-(5-chloro-3-pyridyl)-3-methyl-piperazin-1-yl]-2-methyl-3-oxo-propyl]-5-cyclopropyl-imidazolidine-2,4-dione]	24 nM	> 4000 nM		> 20000 nM	34 nM
Cc1cncc(N2CCN(C(=O)C(C)CC3(C4CC4)NC(=O)NC3=O)C[C@@H]2C)c1 (stereo partly drawn) [compound 342, 5-cyclopropyl-5-[2-methyl-3-[(3S)-3-methyl-4-(5-methyl-3-pyridyl)piperazin-1-yl]-3-oxo-propyl]imidazolidine-2,4-dione]	39 nM	> 4000 nM		2600 nM	
C[C@H]1CN(C(=O)CCC2(c3ccccn3)NC(=O)NC2=O)CCN1c1cc(F)cc(Cl)c1 (stereo partly drawn) [compound 346, 5-[3-[(3S)-4-(3-chloro-5-fluoro-phenyl)-3-methyl-piperazin-1-yl]-3-oxo-propyl]-5-(2-pyridyl)imidazolidine-2,4-dione]	37 nM	> 4000 nM		> 4000 nM	
C[C@H]1CN(C(=O)CCC2(c3cnccn3)NC(=O)NC2=O)CCN1c1cccc(F)c1 (stereo partly drawn) [compound 350, 5-[3-[(3S)-4-(3-fluorophenyl)-3-methyl-piperazin-1-yl]-3-oxo-propyl]-5-pyrazin-2-yl-imidazolidine-2,4-dione]	62 nM	> 20000 nM		1310 nM	
CC(CC1(C2CC2)NC(=O)NC1=O)C(=O)N1CCN(c2cccnc2)[C@@H](C)C1 (stereo partly drawn) [compound 351, 5-cyclopropyl-5-[2-methyl-3-[(3S)-3-methyl-4-(3-pyridyl)piperazin-1-yl]-3-oxo-propyl]imidazolidine-2,4-dione]	35 nM	> 20000 nM		3840 nM	
C[C@H]1CN(C(=O)CC[C@@]2(C3CC3)NC(=O)NC2=O)CCN1c1cc(F)cc(-c2cn[nH]c2)c1 [compound 357, (5S)-5-cyclopropyl-5-[3-[(3S)-4-[3-fluoro-5-(1H-pyrazol-4-yl)phenyl]-3-methyl-piperazin-1-yl]-3-oxo-propyl]imidazolidine-2,4-dione]	25 nM	> 4000 nM		> 20000 nM	
CCC1(C[C@H](C)C(=O)N2CCN(c3cncc(Cl)c3)[C@@H](C)C2)NC(=O)NC1=O (stereo partly drawn) [compound 359, 5-[(2S)-3-[4-(5-chloro-3-pyridyl)-3-methyl-piperazin-1-yl]-2-methyl-3-oxo-propyl]-5-ethyl-imidazolidine-2,4-dione]	83 nM	> 12000 nM		978 nM	
CC(CC1(C)NC(=O)NC1=O)C(=O)N1CCN(c2ccc(F)cc2)[C@@H](C)C1 (stereo partly drawn) [compound 365, 5-[3-[(3S)-4-(4-fluorophenyl)-3-methyl-piperazin-1-yl]-2-methyl-3-oxo-propyl]-5-methyl-imidazolidine-2,4-dione]	72 nM	> 9330 nM		> 20000 nM	
Cc1cc(C2(CCC(=O)N3CCN(c4cc(F)cc(F)c4)[C@@H](C)C3)NC(=O)NC2=O)ccn1 (stereo partly drawn) [compound 367, 5-[3-[(3S)-4-(3,5-difluorophenyl)-3-methyl-piperazin-1-yl]-3-oxo-propyl]-5-(2-methyl-4-pyridyl)imidazolidine-2,4-dione]	44 nM	> 4000 nM		> 20000 nM	
CC(CC1(C)NC(=O)NC1=O)C(=O)N1CCN(c2cccc(-c3cn[nH]c3)c2)[C@@H](C)C1 (stereo partly drawn) [compound 371]	42 nM	> 3730 nM		682 nM	
C[C@@H](C[C@@]1(C)NC(=O)NC1=O)C(=O)N1CCN(c2cc(F)cc(-c3cn[nH]c3)c2)[C@@H](C)C1 [compound 375, 5-[3-[(3S)-4-[3-fluoro-5-(1H-pyrazol-4-yl)phenyl]-3-methyl-piperazin-1-yl]-2-methyl-3-oxo-propyl]-5-methyl-imidazolidine-2,4-dione]	30 nM	1130 nM		> 20000 nM	
C[C@H]1CN(C(=O)CCC2(c3cocn3)NC(=O)NC2=O)CCN1c1cc(F)cc(Cl)c1 (stereo partly drawn) [compound 388, 5-[3-[(3S)-4-(3-chloro-5-fluoro-phenyl)-3-methyl-piperazin-1-yl]-3-oxo-propyl]-5-oxazol-4-yl-imidazolidine-2,4-dione]	57 nM	> 4000 nM		549 nM	74 nM
C[C@H]1CN(C(=O)CCC2(c3cn(C)cn3)NC(=O)NC2=O)CCN1c1cc(F)cc(Cl)c1 (stereo partly drawn) [compound 389, 5-[3-[(3S)-4-(3-chloro-5-fluoro-phenyl)-3-methyl-piperazin-1-yl]-3-oxo-propyl]-5-(1-methylimidazol-4-yl)imidazolidine-2,4-dione]	40 nM	> 4000 nM		> 20000 nM	
Cc1nc(C2(CCC(=O)N3CCN(c4cc(F)cc(F)c4)[C@@H](C)C3)NC(=O)NC2=O)c(C)o1 (stereo partly drawn) [compound 396, 5-[3-[(3S)-4-(3,5-difluorophenyl)-3-methyl-piperazin-1-yl]-3-oxo-propyl]-5-(2,5-dimethyloxazol-4-yl)imidazolidine-2,4-dione]	53 nM	> 4000 nM		7 nM	
C[C@H]1CN(C(=O)CCC2(c3cnn(C)c3)NC(=O)NC2=O)CCN1c1cc(F)cc(F)c1 (stereo partly drawn) [compound 397, 5-[3-[(3S)-4-(3,5-difluorophenyl)-3-methyl-piperazin-1-yl]-3-oxo-propyl]-5-(1-methylpyrazol-4-yl)imidazolidine-2,4-dione]	37 nM	> 4000 nM		26 nM	

Reference: US9926281B2 (priority 2014, dated 2018)
